In patent publication US20080287398A1, “COLD MENTHOL RECEPTOR-1 ANTAGONISTS” (priority 2007, published 2008):
pIC50: −log10 of the molar value. Values joined by “and” are separate entries in the source; they are usually repeats but may differ in a detail not shown here. Equal entries are not always repeated. Where two headings read alike, the source gives them in different places.

Biological target: T1, canine TRPM8 (Canis lupus familiaris, UniProt Q1A7N1)
T1 construct: expressed in transfected cells
T1 sequence (Q1A7N1 1-1104): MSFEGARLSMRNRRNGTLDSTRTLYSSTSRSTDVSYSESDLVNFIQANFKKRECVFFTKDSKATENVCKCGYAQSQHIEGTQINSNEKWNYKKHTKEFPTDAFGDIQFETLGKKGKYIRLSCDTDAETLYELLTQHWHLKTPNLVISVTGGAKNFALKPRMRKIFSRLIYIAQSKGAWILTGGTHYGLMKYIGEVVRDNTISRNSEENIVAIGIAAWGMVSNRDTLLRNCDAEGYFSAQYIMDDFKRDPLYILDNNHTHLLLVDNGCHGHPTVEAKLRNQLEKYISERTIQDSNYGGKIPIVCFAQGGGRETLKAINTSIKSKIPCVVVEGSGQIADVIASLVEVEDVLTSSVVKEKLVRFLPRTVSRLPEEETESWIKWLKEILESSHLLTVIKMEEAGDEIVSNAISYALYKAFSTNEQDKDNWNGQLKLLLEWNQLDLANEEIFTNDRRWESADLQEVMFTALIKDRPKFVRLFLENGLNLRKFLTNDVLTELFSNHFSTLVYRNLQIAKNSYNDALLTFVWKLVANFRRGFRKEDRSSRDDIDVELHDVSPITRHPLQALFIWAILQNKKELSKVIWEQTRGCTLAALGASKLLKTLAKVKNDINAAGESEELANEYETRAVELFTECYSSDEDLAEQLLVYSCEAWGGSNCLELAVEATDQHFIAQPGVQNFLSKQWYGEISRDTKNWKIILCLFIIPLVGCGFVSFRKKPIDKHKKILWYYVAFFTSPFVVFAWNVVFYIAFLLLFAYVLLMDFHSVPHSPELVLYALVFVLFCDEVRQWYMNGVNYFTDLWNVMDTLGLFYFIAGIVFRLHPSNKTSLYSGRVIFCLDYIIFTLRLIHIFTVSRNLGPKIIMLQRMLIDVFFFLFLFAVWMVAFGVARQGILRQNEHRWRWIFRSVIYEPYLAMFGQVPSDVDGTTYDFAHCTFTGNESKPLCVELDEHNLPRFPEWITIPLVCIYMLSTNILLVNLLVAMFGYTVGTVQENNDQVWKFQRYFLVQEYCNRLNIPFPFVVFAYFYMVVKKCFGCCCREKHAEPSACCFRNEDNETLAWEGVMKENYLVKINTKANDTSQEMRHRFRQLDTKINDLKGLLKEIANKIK
Assay: In vitro canine TRPM8 functional assay (Ca2+-sensitive dye, FLIPR/FDSS, icilin activation)
Format: cell-based
Conditions: HEK293 cells expressing canine TRPM8, icilin activation; for pIC50 / IC50: eight-point dose-response; for pIC50: read-out: IC50; for % I (0.5 μM): 0.5 μM compound; for % I (1 μM): 1 μM compound; for % I (5 μM): 5 μM compound; for IC50: IC50 (μM)
Method in brief: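 Icilin challenge (final concentration producing ~80% of maximal response) followed a 5 min compound exposure in canine TRPM8-HEK293 cells dye-loaded with Calcium 3. Intracellular Ca2+ was read on FLIPR/FDSS. EC50 and IC50 values came from nonlinear sigmoidal dose-response fits of basal-subtracted, percent-of-maximum data averaged over quadruplicates.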

[1] = HEK293, 1 μM compound, read-out: % I (1 μM)
[2] = HEK293, read-out: % I (1 μM), 1 μM compound

Row | Compound | pIC50 | % I (0.5 μM) | % I (1 μM) | also measured
1 | Cc1c(C(Cc2ccc(F)c(F)c2)P(=O)(OC(C)C)OC(C)C)sc2ccc(Cl)cc12 (stereo not drawn) [Cpd 92, [1-(5-Chloro-3-methyl-benzo[b]thiophen-2-yl)-2-(3,4-difluoro-phenyl)-ethyl]-phosphonic acid diisopropyl ester] | 6.24 |  |  | inhibition at 1 µM [1]: 91%
2 | CC(C)OP(=O)(OC(C)C)C(Cc1ccc(F)cc1)c1sc2ccccc2c1Cl (racemic) [Cpd 306] |  | 101% and 102% |  | 
3 | CC(C)OP(=O)(OC(C)C)C(Cc1cccc(F)c1)c1cc2ccccc2s1 (stereo not drawn) [Cpd 133] | 6.47 |  | 101% | 
4 | CCOP(=O)(OCC)C(Cc1ccc(F)c(F)c1)c1sc2ccccc2c1-c1ccc(F)cc1 (racemic) [Cpd 220] | 6.68 | 101% |  | 
5 | CC(C)OP(=O)(OC(C)C)C(Cc1ccccc1C(F)(F)F)c1sc2ccccc2c1Cl (racemic) [Cpd 173] | 6.85 | 103% |  | 
6 | CC(C)OP(=O)(OC(C)C)C(Cc1cccc(C(F)(F)F)c1F)c1sc2ccccc2c1Cl (racemic) [Cpd 168] | 7.12 | 104% |  | 
7 | COCCOCCOP(=O)(OCCOCCOC)C(Cc1ccc(F)c(F)c1)c1sc2ccccc2c1Br (racemic) [Cpd 210] |  | 62% |  | 
8 | CCOP(=O)(OCC)C(Cc1c(F)c(F)c(OC)c(F)c1F)c1sc2ccccc2c1Br (racemic) [Cpd 160] | 7.22 | 87% |  | 
9 | CCOP(=O)(OCC)C(Cc1ccc(Br)cc1)c1cc2ccccc2s1 (stereo not drawn) [Cpd 70] | 6.46 |  | 82% | % I (5 μM): 99%
10 | CC(C)OP(=O)(OC(C)C)C(Cc1ccc(F)c(F)c1)c1oc2cccc(F)c2c1Br (racemic) [Cpd 205] | 7.30 |  | 101% | 
11 | CCOP(=O)(OCC)C(Cc1cc2c(cc1Cl)OCO2)c1sc2ccccc2c1C (stereo not drawn) [Cpd 71] | 6.44 |  | 98% | 
12 | CC(C)CCOP(=O)(OCCC(C)C)C(Cc1ccc(F)c(F)c1)c1sc2ccccc2c1Br (racemic) [Cpd 211] | 7.02 | 97% |  | 
13 | CCOP(=O)(OCC)C(Cc1ccc(OC)cc1)c1sc2ccccc2c1Br (stereo not drawn) [Cpd 321] | 7.37 | 102% |  | 
14 | CCOP(=O)(OCC)C(Cc1cccc(C(=O)OC)c1)c1sc2ccccc2c1Br (stereo not drawn) [Cpd 313] | 7.08 | 102% |  | 
15 | CCOP(=O)(OCC)C(Cc1cc(F)c(Cl)cc1Cl)c1sc2ccccc2c1C (stereo not drawn) [Cpd 76] | 6.40 |  | 100% | 
16 | CC(C)OP(=O)(OC(C)C)C(Cc1ccc(F)c(F)c1)c1oc2ccccc2c1Br (stereo not drawn) [Cpd 124] | 7.31 |  | 103% | 
17 | CC(C)OP(=O)(OC(C)C)C(Cc1ccc(C(F)(F)F)c(F)c1)c1sc2ccccc2c1Cl (stereo not drawn) [Cpd 174] | 7.05 | 104% |  | 
18 | CCOP(=O)(OCC)C(Cc1ccc(Cl)cc1)c1sc2ccccc2c1Cl (racemic) [Cpd 293] | 6.81 | 103% |  | 
19 | CCOP(=O)(OCC)C(Cc1cccc(O)c1)c1sc2ccccc2c1Br (stereo not drawn) [Cpd 316] | 7.49 and 7.70 | 103% and 104% |  | 
20 | CCOP(=O)(OCC)C(Cc1cc(C(F)(F)F)ccc1Cl)c1sc2ccccc2c1C (stereo not drawn) [Cpd 99] | 6.14 |  | 100% | 
21 | CC(C)OP(=O)(OC(C)C)C(Cc1ccccc1F)c1sc2cccc(Br)c2c1Br (stereo not drawn) [Cpd 198] | 6.45 |  | 98% | 
22 | CC(C)OP(=O)(OC(C)C)C(Cc1ccc(F)c(F)c1)c1sc2ccccc2c1C(C)C (stereo not drawn) [Cpd 19] | 7.17 |  | 100% | 
23 | CC(C)OP(=O)(OC(C)C)C(Cc1ccc(C(F)(F)F)cc1F)c1sc2ccccc2c1Cl (stereo not drawn) [Cpd 191] | 6.90 | 104% |  | 
24 | CC(C)OP(=O)(OC(C)C)C(Cc1ccc(F)c(C(F)(F)F)c1)c1c(Br)c2ccccc2n1C(=O)OC(C)(C)C (stereo not drawn) [Cpd 327, 3-Bromo-2-[1-(diisopropoxy-phosporyl)-2-(4-fluoro-3-trifluoromethyl-phenyl)-ethyl]-indole-1-carboxylic acid tert-butyl ester] |  | 44% |  | 
25 | CCOP(=O)(OCC)C(Cc1ccc(F)c(F)c1)c1sc2ccccc2c1-c1cccc(C(=O)OC)c1 (racemic) [Cpd 219] |  | 68% |  | 
26 | CCOP(=O)(OCC)C(Cc1cccc(Cl)c1F)c1sc2ccccc2c1C (stereo not drawn) [Cpd 23] | 7.02 |  | 100% | 
27 | CCOP(=O)(OCC)C(Cc1ccc(F)c(F)c1)c1sc2ccccc2c1-c1ccsc1 (racemic) [Cpd 208] | 6.98 | 104% |  | 

Row | Compound | pIC50 | % I (0.5 μM) | % I (1 μM) | also measured
28 | CCOP(=O)(OCC)C(Cc1ccc(Cl)c(F)c1)c1sc2ccccc2c1Br (stereo not drawn) [Cpd 258] | 7.35 | 102% |  | 
29 | CCOP(=O)(OCC)C(Cc1ccc(F)c(F)c1)c1sc2cc(OC)ccc2c1C (stereo not drawn) [Cpd 82, [2-(3,4-Difluoro-phenyl)-1-[6-methoxy-3-methyl-benzo[b]thiophene-2-yl)-ethyl]-phosphonic acid diethyl ester] |  |  |  | inhibition at 1 µM [2]: 87%; IC50: 0.44 µM
30 | CC(C)OP(=O)(OC(C)C)C(Cc1cccc(F)c1)c1sc2ccccc2c1Br (stereo not drawn) [Cpd 192] | 7.42 |  | 103% | 
31 | CCOP(=O)(OCC)C(Cc1ccc(F)c(F)c1)c1sc2ccccc2c1-c1ccccc1O (racemic) [Cpd 215] | 7.07 | 101% |  | 
32 | COP(=O)(OC)C(Cc1ccc(F)c(F)c1)c1sc2ccccc2c1Br (stereo not drawn) [Cpd 201] | 6.88 |  | 100% | 
33 | CCOP(=O)(OCC)C(Cc1ccccc1-c1ccccc1)c1sc2ccccc2c1C (stereo not drawn) [Cpd 115] |  |  | 69% | 
34 | CCOP(=O)(Cc1cc2ccccc2s1)OCc1ccccc1 (stereo not drawn) [Cpd 111] |  |  | 14% | 
35 | CCOP(=O)(Cc1cc2ccccc2s1)OCc1c(Cl)cccc1Cl (stereo not drawn) [Cpd 94, Benzo[b]thiophen-2-ylmethyl-phosphonic acid 2,6-dichloro-benzyl ester ethyl ester] |  |  |  | % I (5 μM): 98%; inhibition at 1 µM [2]: 79%; IC50: 0.6 µM
36 | CCOP(=O)(OCC)C(Cc1cc(F)cc(Cl)c1)c1sc2ccccc2c1Cl (stereo not drawn) [Cpd 276] | 6.94 | 103% |  | 
37 | CCOP(=O)(OCC)C(Cc1ccc(F)c(F)c1)c1sc2cc(Cl)ccc2c1C1CCCC1 (stereo not drawn) [Cpd 117, [1-(6-Chloro-3-cyclopentyl-benzo[b]thiophen-2-yl)-2-(3,4-difluoro-phenyl)-ethyl]-phosphonic acid diethyl ester] |  |  |  | inhibition at 1 µM [2]: 28%
38 | CCOP(=O)(OCC)C(Cc1cccc(Cl)c1F)c1sc2ccccc2c1Br (racemic) [Cpd 143] | 7.17 | 101% |  | 
39 | CC(C)OP(=O)(OC(C)C)C(Cc1cccc(Br)c1)c1sc2ccccc2c1Cl (stereo not drawn) [Cpd 182] | 7.12 | 104% |  | 
40 | CCOP(=O)(Cc1cc2ccccc2s1)OCc1ccccc1F (stereo not drawn) [Cpd 109, Benzo[b]thiophen-2-ylmethyl-phosphonic acid ethyl ester 2-fluoro-benzyl ester] |  |  |  | % I (5 μM): 98%; inhibition at 1 µM [2]: 17%; IC50: 1.47 µM
41 | CC(C)OP(=O)(OC(C)C)C(Cc1ccc(OC(F)(F)F)cc1)c1sc2ccccc2c1Cl (stereo not drawn) [Cpd 187] | 7.21 | 103% |  | 
42 | CCOP(=O)(OCC)C(Cc1ccc(Cl)c(Cl)c1)c1sc2ccccc2c1-c1ccccc1 (stereo not drawn) [Cpd 64, [2-(3,4-Dichloro-phenyl)-1-(3-phenyl-benzo[b]thiophen-2-yl)-ethyl]-phosphonic acid diethyl ester] |  |  |  | inhibition at 1 µM [2]: 64%; IC50: 0.3 µM
43 | (R)-[1-(3-Bromo-benzo[b]thiophen-2-yl)-2-(4-trifluoromethoxy-phenyl)-ethyl]-phosphonic acid diisopropyl ester [Cpd 237] |  | 96% and 70% |  | 
44 | CCOP(=O)(OCC)C(Cc1cc2ccccc2s1)c1cc2ccccc2s1 (stereo not drawn) [Cpd 90] | 6.27 |  | 89% | 
45 | COc1ccc(CC(c2sc3ccccc3c2Br)P(=O)(OC(C)C)OC(C)C)c(F)c1 (racemic) [Cpd 163] | 7.70 | 103% |  | 
46 | CC(C)OP(=O)(OC(C)C)C(Cc1ccc(F)c(F)c1)c1sc2ccccc2c1C(F)(F)F (stereo not drawn) [Cpd 43, [2-(3,4-Difluoro-phenyl)-1-(3-trifluoromethyl-benzo[b]-thiophene-2-yl)-ethyl]-phosphonic acid diisopropyl ester] | 6.80 |  |  | inhibition at 1 µM [1]: 100%
47 | CCOP(=O)(Cc1cc2ccccc2s1)OCc1ccccc1Br (stereo not drawn) [Cpd 110] | 5.63 |  | 11% | % I (5 μM): 96%
48 | CCOP(=O)(OCC)C(Cc1ccc(F)c(F)c1)c1oc2cccc(F)c2c1Br (racemic) [Cpd 206] | 7.01 |  | 100% | 
49 | CC(C)OP(=O)(OC(C)C)C(Cc1ccc(F)c(C(F)(F)F)c1)c1c(Br)c2ccccc2n1C (stereo not drawn) [Cpd 328, [1-(3-Bromo-1-methyl-1H-indol-2-yl)-2-(4-fluoro-3-trifluoromethyl-phenyl)-ethyl]-phosphonic acid diisopropyl ester] | 6.71 |  |  | inhibition at 0.5 µM (HEK293, 0.5 μM compound, read-out: % I (0.5 μM)): 102%
50 | CC(C)OP(=O)(OC(C)C)C(Cc1ccc(SC(F)(F)F)cc1)c1sc2ccccc2c1Cl (racemic) [Cpd 304] | 7.55 | 102% |  | 
51 | CCOP(=O)(OCC)C(Cc1cccc(-n2cccc2)c1)c1sc2ccccc2c1Br (stereo not drawn) [Cpd 310] | 7.38 | 102% |  | 
52 | CCOP(=O)(OCC)C(Cc1ccccc1F)c1csc2ccccc12 (stereo not drawn) [Cpd 86] | 6.30 |  |  | % I (5 μM): 101%
53 | CCOP(=O)(OCC)C(Cc1ccc(OC(F)(F)F)cc1)c1sc2ccccc2c1Cl (stereo not drawn) [Cpd 277] | 6.94 | 103% |  | 
